Square brackets hold non-standard residues; d marks the D form. Peptide text beside a SMILES is read from it. dPhe(4-Cl) = N[C@H](Cc1ccc(Cl)cc1)C(=O)O; d2Nal = N[C@H](Cc1ccc2ccccc2c1)C(=O)O; dCit = NC(=O)NCCC[C@@H](N)C(=O)O; d3Pal = N[C@H](Cc1cccnc1)C(=O)O
Columns and labels:
Glioblastoma multiforme = test: Phase I study with Buserelin (Example 5); assay type: in vivo, human; details: intravenous or intranasal, permanent medication
Protocol: Patients with non-resectable Glioblastoma multiforme following microsurgical resection and/or after external conventional radiotherapy and/or brachytherapy; or patients with a diffusely, intraaxially growing brain tumor, multifocal tumor spreading or presence of a gliomatosis cerebri, respectively; a tumor volume of more than 65 ml; or a minimal tumor diameter of more than 5 cm, were each treated with the GnRH agonist Buserelin, which was administered intravenously or alternatively by intranasal application as a permanent medication as described by Klijn, J. G. M., et al., 1982, The Lancet, May 19, […].

[1] = test system: human glioblastoma cell lines U-87MG or U-373MG, Kaposi sarcoma cell lines KSY-1 or KS-SLK, malignant melanoma cell line MV3 or BLM, medulloblastoma cell line …; test: Proliferation assay on cell cultures (Example 3); assay type: cell-based; details: for anti-proliferative effects in tumor cells: cell lines of Example 3 treated with the substance; for anti-proliferative effect compared with Cetrorelix only: given additionally as a second GnRH antagonist
Protocol: A human cell line, such as the well known human glioblastoma cell lines U-87MG or U-373MG (Pinski et al., supra), or a human cell line such as the well known Kaposi sarcoma cell lines KSY-1 or KS-SLK (Parkash et al., 1996, New England Journal of Medicine, 335, 17, 1261-1269), or a human cell line such as the well known human malignant melanoma cell line MV3 or BLM (Goldbrunner, R. H., et al., 1996, Anticancer Research 16 (6B), 3679-87), or a human medulloblastoma cell line such as the well known cell line Daoy or D283 MED (Stockhammer et al., 1995, J. Neurosurgery, 83, 672-681), or human meningeoma cell cultures (Boyle-Wash, E., et al., 1995, Journal of Endocrinology, 145, 155-161), are cultured as previously described for the above-mentioned cell lines and then treated with a concentration of the GnRH agonist Triptorelin®, GnRH antagonist SB-75 (Cetrorelix®) or GnRH antagonist Ramorelix®. […]
In another embodiment, the above-mentioned cell lines are treated as described by Emons, G., et al., 1993, supra, and Irmer, G., 1995, supra, with a concentration of the GnRH peptide antagonist Ac-D-Nal(2)-D-4-ClPhe-D-Pal-Ser-1-MePal-D-IsopropylLys-Leu-IsopropylLys-Pro-D-AlaNH2 (also known as Ant 135-25; the Mepal portion is known as 1-Methyl-3-[3′-pyridyl]-alanine), Teverelix (also known as Antarelix®), Cetrorelix (also known as Cetrotide®), Abarelix (also known as Plenaxis®), D-63153 (also known as Ozarelix®), acyline, azaline B, antide (also known as Iturelix®), Degarelix (FE200486), Ganirelix, Nal-Glu, Orntide (also known as Ornirelix®), Elagolix, or with antagonist peptidomimetic ((2S)-2-[5-[2-(2-azabicyclo[2,2,2]oct-2-yl)-1,1-dimethyl-2-oxoethyl]-2-(3,5-dimethylphenyl)-1H-indol-3-yl]-N-(2-pyridin-4-ylethyl-)propan-1-amine (also known as “IN3”).
In another embodiment, the cell lines used above were each additionally treated with a second GnRH antagonist, namely one of the GnRH antagonists Cetrorelix®, Ant 135-25, IN3, degarelix, Antarelix®, Antide®, and Ramorelix® or alternatively with one of the GnRH antagonists that have been disclosed in U.S. Pat. Nos. 6,939,88, 6,200,957, 5,296,468, 4,851,385, 7,361,633, 7,288,517, WO/2009/106597 or PCT/EP2009/052326, U.S. Pat. Nos. 5,480,969, 5,198,533, or UK Patent GB 2 246782 B, wherein these additional treatment procedures were carried out in a manner similar to those reported in Emons et al., supra, using SB 75 (Cetrorelix®). […]

[2] = test system: malignant gliomas U-87MG and U-373MG; test: In vivo study with tumor-implanted nude mice (Example 4); details: daily dosages
Protocol: An effect of the treatment of tumor-implanted nude mice (Pinski et al., supra) each with one of the GnRH agonists Buserelin, Triptorelin, Goserelin, and Leuprorelin and each with one of the GnRH antagonists Cetrorelix® (SB-75), Antarelix®, Antide®, and Ramorelix® on the growth of malignant gliomas U-87MG and U-373MG was carried out using daily dosages and controls in nude mice using analysis techniques described for the determination of the efficacy of similar peptides in Pinski et al., supra.

U-87MG cells = assay type: cell-based, human
Protocol: U-87MG cells were plated at a density of 1400 cells/cm^2 in […] in standard culture medium. Cells were allowed to attach and start growing for 3 days; the seeding media were then changed to experimental media. Cells were treated for 7 days with ZOLADEX® (10^−10-10^−6 M); medium was changed every two days. Following treatment, cells were collected and counted by hemocytometer. Data obtained from three independent experiments were analyzed according to the Dunnett's test after one-way ANOVA.

[3] = test system: small cell lung carcinoma cell lines NCI-H1688, NCI-H1417, NCI-H1672, NCI-H1836, DMS-79, DM-553, DMS-114, SW-1271, NCI-H2227, NCI-HI1963, SHP-77 and H-69 AR; test: Proliferation assay on small cell lung carcinoma cell lines (Example 3); assay type: cell-based, human; details: small cell lung carcinoma cell lines treated with the substance
Protocol: In another embodiment, the small cell lung carcinoma cell lines NCI-H1688, NCI-H1417, NCI-H1672, NCI-H1836, DMS-79, DM-553, DMS-114, SW-1271, NCI-H2227, NCI-HI1963 and SHP-77 in addition to the multidrug-resistant small cell lung carcinoma cell line H-69 AR, are cultured as described above and then treated as described by Emons, G., et al., 1993, supra, and Irmer, G., 1995, supra, with various concentrations of the GnRH agonists (D-Lys6)-GnRH, Lutrelin, Histrelin, Nafarelin, Azagly-Nafarelin, Deslorelin, Cystorelin, Decapeptyl, Gonadorelin, GnRH, D-Lys(6)-GnRH II, Lamprey GnRH II, (D-Lys6)-Lamprey GnRH, (D-Lys6)-Lamprey GnRH II and Lamprey GnRH III.
In another embodiment, the small cell lung carcinoma cell lines NCI-H1688, NCI-H1417, NCI-H1672, NCI-H1836, DMS-79, DM-553, DMS-114, SW-1271, NCI-H2227, NCI-HI1963 and SHP-77 in addition to the multidrug-resistant small cell lung carcinoma cell line H-69 AR, are cultured as described above for the above-mentioned cell lines, and then treated as described by Emons, G., et al., 1993, supra, and Irmer, G., 1995, supra, with a concentration of the GnRH antagonist Cetrorelix (also known as Cetrotide®) or with a GnRH peptide antagonist Ac-D-Nal(2)-D-4-ClPhe-D-Pal-Ser-1-MePal-D-IsopropylLys-Leu-IsopropylLys-Pro-D-AlaNH2 wherein Mepal is 1-Methyl-3-[3′-pyridyl]-alanine or Ant 135-25 (also known as Ac-D-Nal(2)-D-4-Cl-Phe-D-Pal-Ser-1-MePal-D-IsopropylLys-Leu-IsopropylLys-Pro-D-AlaNH2), Teverelix (also known as Antarelix®), Cetrorelix (also known as Cetrotide®), Abarelix (also known as Plenaxis®), D-63153 (also known as Ozarelix®), acyline, azaline B, antide (also known as Iturelix®), Degarelix (FE200486), Ganirelix, Nal-Glu, Orntide (also known as Ornirelix®) or with antagonist peptidomimetic ((2S)-2-[5-[2-(2-azabicyclo[2,2,2]oct-2-yl)-1,1-dimethyl-2-oxoethyl]-2-(3,5-dimethylphenyl)-1H-indol-3-yl]-N-(2-pyridin-4-ylethyl-)propan-1-amine (also known as “IN3”).

[4] = test system: human melanoma cell line MV3; test: Proliferation assay using the human malignant melanoma cell line MV3; assay type: cell-based
Protocol: The human melanoma cell line MV3 was cultured (in long-term culture in RPMI medium (Gibco Co.) with 1% Penstrep and 10% of heat-inactivated fetal calf serum). The proliferation assay was carried out with 6×10^2 cells per well in 96 well plates. First, the cells were removed from the culture flask with a […] and then washed in standard PBS solution. Following centrifugation for 10 minutes (1200 g) the supernatant was discarded and the pellet resuspended in 1 ml medium. An aliquot of 20 μl of the cells was diluted with trypan blue to obtain an 1:20 dilution. Trypan blue stains the necrotic cells. Then counting was performed in a Neubauer counting chamber. Evaluation was performed by daily determination of 4 values starting at day 0 and multiplying the mean values of the cell counts×10^4× dilution factor 20 to obtain the cell count. During the 5 days, the measurement was performed 4× daily in a Biomec spectrophotometer.
The method for determination of tumor cell proliferation is described in Lü, H. Q., et al., 1996, Journal of Cancer Research and Clinical Oncology, 122, 335-342.
The cell line was treated with (Gly-OH10)-LHRH, the LHRH hormone (FIG. 3) (Sigma Chemical Co., No. L8008) or Triptorelin, an LHRH agonist (FIG. 2) (Sigma Chemical Co., No. L9761) or Antide®, a LHRH antagonist (FIG. 1) (Sigma Chemical Co., No. A8802).
Using concentrations of 10^−4 M, 10^−5 M, and 10^−6 M, with the medium serving as a negative control from day 4 on, the following results were obtained: […]

Compound	anti-proliferative effects in tumor cells [1]	growth of malignant gliomas [2]	anti-proliferative effect compared with Cetrorelix only [1]	anti-proliferative effects in tumor cells [3]	also measured
CCNC(=O)[C@@H]1CCCN1C(=O)[C@H](CCCNC(=N)N)NC(=O)[C@H](CC(C)C)NC(=O)[C@@H](COC(C)(C)C)NC(=O)[C@H](Cc1ccc(O)cc1)NC(=O)[C@H](CO)NC(=O)[C@H](Cc1c[nH]c2ccccc12)NC(=O)[C@H](Cc1cnc[nH]1)NC(=O)[C@@H]1CCC(=O)N1 [Buserelin]	Significant anti-proliferative effects	Significant growth-inhibiting effects			recidivation-free survival (Glioblastoma multiforme): longer than that described following Tamoxifen treatment of glioma
CC(=O)N[C@H](Cc1ccc2ccccc2c1)C(=O)N[C@H](Cc1ccc(Cl)cc1)C(=O)N[C@H](Cc1cccnc1)C(=O)N[C@@H](CO)C(=O)N[C@@H](Cc1ccc(O)cc1)C(=O)N[C@H](CCCNC(N)=O)C(=O)N[C@@H](CC(C)C)C(=O)N[C@@H](CCCNC(=N)N)C(=O)N1CCC[C@H]1C(=O)N[C@H](C)C(N)=O [Cetrorelix®] (Ac-[d2Nal][dPhe(4-Cl)][d3Pal]SY[dCit]LRP[dA]-NH2)	Significant anti-proliferative effects	Significant growth-inhibiting effects	significantly stronger anti-proliferative effect	Significant anti-proliferative effects	inhibition of proliferation compared to controls (U-87MG cells; 10^−5 M): 30%; decrease of proliferation (U-87MG cells; 10^−6 M): 28%
CCNC(=O)[C@@H]1CCCN1C(=O)[C@H](CCCNC(=N)N)NC(=O)[C@H](CC(C)C)NC(=O)[C@@H](CC(C)C)NC(=O)[C@H](Cc1ccc(O)cc1)NC(=O)[C@H](CO)NC(=O)[C@H](Cc1c[nH]c2ccccc12)NC(=O)[C@H](Cc1c[nH]cn1)NC(=O)[C@@H]1CCC(=O)N1 [LEUPRORELIN®]	Significant anti-proliferative effects	Significant growth-inhibiting effects			
(Gly-OH10)-LHRH (QHWSYGLRPG; Gonadoliberin-1 C-terminal free acid; UniProt P01148 24-33, looked up) [LHRH hormone, the LHRH hormone (Sigma Chemical Co., No. L8008)]					function of the LHRH hormone on MV3 growth in vitro [4]: positive growth factor
Ac-D-Nal(2)-D-4-ClPhe-D-Pal-Ser-1-MePal-D-IsopropylLys-Leu-IsopropylLys-Pro-D-AlaNH2 [Ant 135-25]	Significant anti-proliferative effects		significantly stronger anti-proliferative effect	Significant anti-proliferative effects	
Antarelix®	Significant anti-proliferative effects	Significant growth-inhibiting effects	significantly stronger anti-proliferative effect	Significant anti-proliferative effects	
Antide®	Significant anti-proliferative effects	Significant growth-inhibiting effects	significantly stronger anti-proliferative effect	Significant anti-proliferative effects	inhibition of proliferation ([4]; 10^−4 M, from day 4 on): 15%; inhibition of proliferation ([4]; 10^−5 M, from day 4 on): 35%; inhibition of proliferation ([4]; 10^−6 M): no inhibition; stimulation of the growth ([4]; 10^−6 M): 40%
Nal-Glu	Significant anti-proliferative effects			Significant anti-proliferative effects	

Reference: patent US8962558B2, “Methods for reducing GnRH-positive tumor cell proliferation using the GnRH antagonist IN3” (priority 1997, dated 2015)
